Data set [1] deals with Human fibroblast cells. Description: cells. It counts as cell-based. The conditions noted are these: read-out: Inhibition of cytolysis.
Data set [2] is described as follows: Acute toxicity (50% lethal dose). Particulars: mouse, in vivo, ddY male mice 20-25 g. An excerpt:
In order to investigate acute toxicity of the ingredients of the present invention, 50% lethal dose of each ingredient was obtained by intravenous and intraperitoneal administration thereof by ddY male mice weighing 20-25 g. From the results shown in Table 5, it is understood that the ingredients had high safety margin.

Data set [3] relates to vaccinia virus (DIE strain). It counts as in vivo, ICR female mice. The conditions noted are these: 8th day after inoculation.
Data set [4] concerns serum interferon. Description: animal or person. It counts as in vivo, ICR female mice. Particulars: Mus musculus, L929, ip, 20 h, read-out: Plaque inhibition.
Where [5] appears, read: ip, intraperitoneal, read-out: 50% Lethal dose, intraperitoneally administered.
Where [6] appears, read: intravenous, read-out: 50% Lethal dose, intravenously administered.

The structures appear in SMILES notation. Counter-ions that a name gives are not always drawn. Like-named read-outs stand apart in the source and are kept apart here.

As for `CC(C)=CCCC(C)=CCCC(C)=CCCC(C)=CCCC(C)=CCCC(C)=CCCC(C)=CCCC(C)=CCCC(C)=CCCC(C)=CCN` [Decaprenylamine hydrochloride], the inhibition at 5 µg/disc in data set [1] was found to be 64.9%. The results for the LD50 in data set [2] (setting [5]) and in data set [2] (setting [6]) were 1000 mg/kg and 39.5 mg/kg, respectively. Besides, the “Inhibition of tail lesion” value is 77.4% in data set [3] (20 mg/kg i.p., consecutively dosed (6 times)); 76.1% in data set [3] (20 mg/kg i.p., dosed one time); 56.8% in data set [3] (20 mg/kg p.o., consecutively dosed (6 times)); 68.7% in data set [3] (30 mg/kg i.p., dosed one time); 69.7% in data set [3] (30 mg/kg s.c., dosed one time); 88.2% in data set [3] (40 mg/kg i.p., consecutively dosed (6 times)). The “Inhibition of tail lesion” value in data set [3] (40 mg/kg i.p., dosed one time) is on record as 79.6%; in data set [3] (50 mg/kg p.o., dosed one time), 24.1%. For the same molecule, the inhibition at 20 mg/kg in data set [4] was determined as 47.1%. In data set [4], the inhibition at 40 mg/kg was found to be 83%.
Regarding `CC(C)=CCCC(C)=CCCC(C)=CCCC(C)=CCCC(C)=CCCC(C)=CCCC(C)=CCCC(C)=CCCC(C)=CCN` [Solanesylamine hydrochloride, solanesylamine hydrochloride], the inhibition at 5 µg/disc in data set [1] stood at 55.4%. Further, the values for the LD50 in data set [2] (setting [5]) and in data set [2] (setting [6]) were over 500 mg/kg and 32.3 mg/kg, respectively. Further, the “Inhibition of tail lesion” value in data set [3] (20 mg/kg i.p., dosed one time) turned out to be 35.7%; in data set [3] (30 mg/kg i.p., dosed one time) it was 72.1%; in data set [3] (30 mg/kg s.c., dosed one time) it was 23.2%; in data set [3] (40 mg/kg p.o., dosed one time), 40.5%. The inhibition at 20 mg/kg in data set [4] was found to be 81%. Further, the inhibition at 40 mg/kg in data set [4] came out at 79.7%.
Regarding `CC(C)=CCCC(C)=CCCC(C)=CCCC(C)=CCCC(C)=CCCC(C)=CCCC(C)=CCCC(C)=CCCC(C)=CCCC(C)=CCCC(C)=CCN` [Undecaprenylamine hydrochloride], the inhibition at 5 µg/disc in data set [1] was found to be 83.3%. Further, the LD50 in data set [2] (setting [5]) is over 1000 mg/kg; in data set [2] (setting [6]), 18 mg/kg. In addition, the “Inhibition of tail lesion” value in data set [3] (20 mg/kg i.p., dosed one time) is 52.4%; in data set [3] (30 mg/kg i.p., dosed one time), 40.5%; in data set [3] (100 mg/kg p.o., dosed one time), 45.6%. Moreover, the inhibition at 40 mg/kg in data set [4] is 70.3%.

(Values after patent US4265910A (priority 1979, dated 1981).)
